Experiments:
finishing barrows [1] = experiment: Loin chop color stability, 8-day simulated retail display (Example IV); type: in vivo, pig; settings: NR 30 mg/kg, 10 days
Experimental: (§1) Seven days prior to the beginning of the experiment, 10 finishing barrows (initial BW 111.9±1.6 kg) were assigned to individual pens located at the East Finisher facility of the Kansas State University Swine Teaching and Research Center (Manhattan, Kans.). Each pen was 7.4 m^2 with a slatted floor, contained a nipple waterer and an individual dry feeder that allowed ad libitum access to food and water. Barrows were randomly assigned to 1 of 2 NR treatments, 0 or 30 mg/kg daily of NR mixed in Karo® syrup and administered by oral gavage. Barrows were administered their assigned treatment for 10 days, after which they were harvested under USDA inspection. Twenty-four hours after harvest, carcass measurements were taken by trained personnel, carcasses were fabricated into the 5 major wholesale cuts, and whole-boneless loins were vacuum packaged and aged for 10 days. Loin were cut into 3 chops with chop 1 being used for day-0 metmyoglobin reducing ability (MRA) analysis, chop 2 being used for day-4 MRA and oxygen consumption rate (OCR) analyses, and chop 3 for 8-day objective/subjective color evaluation and MRA and OCR analyses. There were no Treatment×Day interactions for all objective and subjective color measurements (P>0.77). Day of display affected all measures consistent with the discoloration of meat (P<0.02), except L* (lightness; 0=black and 100=white) value which was not affected (P=0.14; Table 5).

fertilized broiler eggs = experiment: In ovo NR injection at 11 days of incubation: chick weight and Pectoralis major measurements (Example 1); type: in vivo, chicken
Experimental: At 11-days of incubation, 60 fertilized broiler eggs were randomly assigned to completely randomized design with a 2×2 factorial arrangement. Factor 1 comprised treatment, with eggs injected with 100 μl of 0.9% sterile saline solution (NRNeg) or 250 mM NR in sterile saline (NRPos). Factor 2 comprised injection location, with treatments injected into the yolk or albumen. Eggs were incubated at 37±3° C. and a relative humidity of 40±2% for 7 days. Humidity was increased to 60±2% at the same temperature for the final 3 days of incubation. Twenty-four hours after hatching, chicks were euthanized by exposure to CO2 and decapitation. Measurements including chick weight and left Pectoralis major weight, length, and depth were taken for analysis.

finishing barrows [2] = experiment: Finishing pig growth performance (Example IV); type: in vivo
Experimental: as §1, with “analyses.” for “analyses. There were no Treatment×Day interactions for all objective and subjective color measurements (P>0.77). Day of display affected all measures consistent with the discoloration of meat (P<0.02), except L* (lightness; 0=black and 100=white) value which was not affected (P=0.14; Table 5).”

[3] = 8-day display, treatment effect not significant (P>0.19)
[4] = 100 μl 250 mM NR into yolk at 11 d, chicks 24 h after hatching
[5] = d 0 to 17, NR 30 mg/kg daily d 7 to 17

SMILES: NC(=O)c1ccc[n+]([C@@H]2O[C@H](CO)[C@@H](O)[C@H]2O)c1 [Nicotinamide riboside, nicotinamide riboside]
- Metmyoglobin reducing ability (MRA) vs control (finishing barrows [1]; [3]): greater
- Oxygen consumption rate (OCR) vs control (finishing barrows [1]; [3]): greater
- Loin chop L* (0 = black and 100 = white) (finishing barrows [1]; display day 0): 64.4
- Loin chop a* (−60 = green and 60 = red) (finishing barrows [1]; display day 0): 19.7
- Loin chop L* (0 = black and 100 = white) (finishing barrows [1]; display day 1): 65.2
- Loin chop a* (−60 = green and 60 = red) (finishing barrows [1]; display day 1): 18.8
- Loin chop L* (0 = black and 100 = white) (finishing barrows [1]; display day 2): 63.7
- Loin chop a* (−60 = green and 60 = red) (finishing barrows [1]; display day 2): 18.6
- Loin chop L* (0 = black and 100 = white) (finishing barrows [1]; display day 3): 63.4
- Loin chop a* (−60 = green and 60 = red) (finishing barrows [1]; display day 3): 17.8
- Loin chop L* (0 = black and 100 = white) (finishing barrows [1]; display day 4): 63.1
- Loin chop a* (−60 = green and 60 = red) (finishing barrows [1]; display day 4): 17.3
- Loin chop L* (0 = black and 100 = white) (finishing barrows [1]; display day 5): 62.9
- Loin chop a* (−60 = green and 60 = red) (finishing barrows [1]; display day 5): 16.3
- Loin chop L* (0 = black and 100 = white) (finishing barrows [1]; display day 6): 62.7
- Loin chop a* (−60 = green and 60 = red) (finishing barrows [1]; display day 6): 15.6
- Loin chop L* (0 = black and 100 = white) (finishing barrows [1]; display day 7): 62.8
- Loin chop a* (−60 = green and 60 = red) (finishing barrows [1]; display day 7): 15.1
- Loin chop L* (0 = black and 100 = white) (finishing barrows [1]; display day 8): 62.8
- Loin chop a* (−60 = green and 60 = red) (finishing barrows [1]; display day 8): 14.7
- Trained panelists loin chop discoloration vs control (finishing barrows [1]; entire 8-day display period): less discoloration
- Loin chop surface metmyoglobin vs control (finishing barrows [1]; over the 8-day display period): less surface metmyoglobin formation
- Loin chop surface oxymyoglobin vs control (finishing barrows [1]; over the 8-day display period): greater surface oxymyoglobin
- Pectoralis major depth vs NRNeg (fertilized broiler eggs; 100 μl 250 mM NR at 11 d, treatment main effect (yolk and albumen)): thicker muscles
- Chick weight and Pectoralis major weight and length vs NRNeg (fertilized broiler eggs; 100 μl 250 mM NR into albumen at 11 d, chicks 24 h after hatching): no differences
- Chick weight vs NRNeg (fertilized broiler eggs; [4]): tended to weigh more
- Pectoralis major length vs NRNeg (fertilized broiler eggs; [4]): longer
- Pectoralis major weight vs NRNeg (fertilized broiler eggs; [4]): weighed more
- Increase of average daily gain (numerical) (finishing barrows [2]; 30 mg/kg daily oral gavage over 10 days): 8%
- Body weight (finishing barrows [2]; d 0 (NR 30 mg/kg given d 7 to 17; before treatment)): 112.0 kg
- Average daily gain (finishing barrows [2]; d 0 to 7 (before NR treatment)): 0.7 kg
- Average daily feed intake (finishing barrows [2]; [5]): 3.8 kg
- Average daily gain (finishing barrows [2]; [5]): 1.1 kg
- Feed to gain ratio (finishing barrows [2]; [5]): 3.42
- Body weight (finishing barrows [2]; d 7 (start of NR 30 mg/kg, d 7 to 17)): 117.0 kg
- Average daily gain (finishing barrows [2]; d 7 to 17, NR 30 mg/kg daily): 1.43 kg
- Body weight (finishing barrows [2]; d 17, NR 30 mg/kg daily d 7 to 17): 131.3 kg
